Source: patent US20200308624A1, “Phosphate and tensin homolog (PTEN) for the detection of autoimmune diseases or conditions” (Universitätsmedizin der Johannes Gutenberg-Universität Mainz, priority 2019, published 2020)

Tests used:
Type in all cases: cell-based, human
[1] = system: Treg-resistant T cells from MS patients; assay: Suppressor assay: MS T cells cocultured with Treg, proliferation by 3H-Tdr incorporation; conditions: anti-CD3 mAb stimulation, FIG. 1E, n=4
Description: A) PBMC from therapy-naïve MS patients (red) or HC (black) were cocultured with Treg and stimulated with anti-CD3 mAb. T cell proliferation was determined by ^3H-Tdr incorporation on day three. Box plots show percentage of suppression in presence of Treg (ratio 4:1) normalized to proliferation of T cells alone as median with interquartile range (n=15), P-values relative to T cells of HC are shown, to avoid familywise error rate bonferroni correction was used p*. B) C) IL-6R expression within CD3+ T cells of PBMC from HC or MS was determined by flow cytometry. One representative of eight independent experiments is shown. D) PKB/c-Akt phosphorylation was determined by flow cytometry within CD3^+ T cells of MS (red) or HC (black). Six different experiments are shown, p-values relative to MFI of HC. E) MS T cells with Treg were stimulated with anti-CD3 mAb without (circle) or with (quadrats) anti-IL-6R mAb or (triangles) Akt-VIII inhibitor. Each dot represents percentage of proliferation with Treg normalized to T cells alone (n=4), p-values to MS T cells.
CD4^+CD25^− T cells (10^5 cells/well, 96 well plate, flat bottom) were stimulated with 0.1 μg/ml anti-CD3 mAb (OKT-3) and cultured in presence or absence of different Treg ratios. CD3-depleted PBMC (5×10^4/well) were used as costimulus. […] T cell proliferation was measured by ^3H-Tdr incorporation using a liquid […] counter. […]

[2] = system: CD4+CD25- T cells from healthy donors; assay: Suppressor assay: T cells and Treg cocultured in presence of IL-6 (3H-Tdr); conditions: T cells from healthy donors incubated overnight with IL-6 (500 ng/ml)
Description: In addition to PKB, also IL-6 and its signaling pathway play a crucial role in whether T cells from MS patients respond to suppression by Treg or not. In the context of autoimmune diseases, it has been investigated how the increased IL-6 production observed in MS can affect PTEN protein expression.
(§1) FIG. 5: IL-6 mediates Treg resistance by inducing the phosphorylation of PKB/c-Akt and downregulation of PTEN in activated T cells A) T cells and Treg were cocultured in presence (grey) or absence (black) of IL-6 and stimulated with anti-CD3 mAb. […] B) PKB/c-Akt phosphorylation was analyzed by flow cytometry within T cells after 24 h of culture with (black) or without IL-6 (grey). C) T cells from HC were incubated for 24 h without IL-6 (black) or with IL-6 (grey) or IL-6 and anti-IL-6R mAb (striped). Shown is the mean fluorescence intensity (MFI) of pPKB/c-Akt in T cells (n=5). D) PBMC from HC were cultured for 24 h in the presence or absence of 500 ng/ml IL-6. […] Total proteins were isolated and PTEN protein expression was analyzed via western blot.
CD4^+CD25^− T cells (10^5 cells/well, 96 well plate, flat bottom) were stimulated with 0.1 μg/ml anti-CD3 mAb (OKT-3) and cultured in presence or absence of different Treg ratios. […] T cell proliferation was measured by ^3H-Tdr incorporation using a liquid […] counter. […]

PKB/c-Akt = PKB/c-Akt phosphorylation in T cells after culture with IL-6 (flow cytometry)
Description: as §1
Flow cytometric analysis was performed using the following antibodies: anti-human CD3 (UCHT1), anti-human CD4 (RPA-T4), anti-human CD8 (SK1), anti-human CD14 (M5E2), anti-human CD19 (HIB19), all from BD Pharmingen, anti-human CD25 (4E3), anti-human CD127 (MB15-18C9), all from Miltenyi Biotec. […] Cell viability during flow cytometric analysis was determined using 7-AAD and eFluor506 (eBioscience). […] Stained cells were measured on LSRII with FACS Diva Software (BD Bioscience) or FACSVia™ and data was analyzed with BD FACSVia Research Software (BD Biosciences). […]

PTEN protein = PTEN protein expression in IL-6-treated activated CD4+ T cells (Western blot); conditions: IL-6-treated (500 ng/ml, 24 h) T cells, 2 hours after polyclonal activation, compared to untreated controls
Description: FIG. 5: IL-6 mediates Treg resistance by inducing the phosphorylation of PKB/c-Akt and downregulation of PTEN in activated T cells A) T cells and Treg were cocultured in presence (grey) or absence (black) of IL-6 and stimulated with anti-CD3 mAb. […] B) PKB/c-Akt phosphorylation was analyzed by flow cytometry within T cells after 24 h of culture with (black) or without IL-6 (grey). C) T cells from HC were incubated for 24 h without IL-6 (black) or with IL-6 (grey) or IL-6 and anti-IL-6R mAb (striped). Shown is the mean fluorescence intensity (MFI) of pPKB/c-Akt in T cells (n=5). D) PBMC from HC were cultured for 24 h in the presence or absence of 500 ng/ml IL-6. CD4^+ T cells were isolated, left unstimulated or were activated with anti-CD3 and anti-CD28 mAb for two hours. Total proteins were isolated and PTEN protein expression was analyzed via western blot.
Cell pellets were lysed in Cell Extraction Buffer (Invitrogen) supplemented with 1 mM PMSF (Invitrogen) and Protease Inhibitor Cocktail (Sigma) for 30 min on ice with vortexing at 10 min intervals. Total protein concentration of cell lysates was determined with Micro BCA Protein Assay Kit (Thermo Fisher Scientific) according to manufacturer's protocol. Protein separation was performed using the NuPAGE® Bis-Tris electrophoresis system (Thermo Fisher Scientific). […] Western blots were analyzed and quantified with ImageJ software.

O=c1[nH]c2ccccc2n1C1CCN(Cc2ccc(-c3nc4cc5nc[nH]c5cc4nc3-c3ccccc3)cc2)CC1 [Akt VIII]
responsiveness towards Treg-mediated suppression [1]: restores responsiveness towards Treg-mediated suppression

IL-6: cytokine IL-6 (ImmunoTools) added to cultures
Treg resistance [2]: induce Treg resistance
phosphorylation of protein kinase B (PKB/c-Akt; T cells from healthy donors, 24 h with IL-6): increased phosphorylation of protein kinase B
PTEN protein expression (PTEN protein): significant decrease in PTEN protein expression

Tocilizumab [anti-IL-6 receptor antibody]
IL-6-induced hyperactivation of PKB (PKB/c-Akt; T cells from HC, 24 h with IL-6 and anti-IL-6R mAb, n=5): abolished this effect
responsiveness towards Treg-mediated suppression [1]: restores responsiveness towards Treg-mediated suppression
